Results from publication PMC12053642, “Oral PRI-002 treatment in patients with MCI or mild AD: a randomized, double-blind phase 1b trial” (Nature Communications, 2025).
“Also recorded” adds a separate entry of the source. Square brackets hold non-standard residues; d marks the D form. Peptide text beside a SMILES is read from it.

Key:
[1] = Pharmacokinetics of PRI-002 in plasma; details: 300 mg q.d. oral, MCI/mild AD patients
Method: The effect on biomarker was assessed during baseline and after 28 days of medication. CSF collection and blood sampling were performed to determine PRI-002 concentration, which was conducted by Nuvisan (Neu-Ulm, Germany) and to exploratively estimate the effect of PRI-002 on the modulation of Aβ 1-40, Aβ 1-42, Aβ oligomers, total tau (t-tau), and phospho tau (p-tau). Aβ 1-40, Aβ 1-42, t-tau and p-tau181 were measured by immunoassay, using the Lumipulse platform (Fujirebio, Tokyo, Japan) and Aβ oligomers concentrations were determined using sFIDA technology[31]–[33] by attyloid GmbH (Düsseldorf, Germany). The effect of PRI-002 on cognitive and functional performance was measured by repetitively applying the CERAD+ battery and the Clinical Dementia Rating (CDR) at baseline, at Day 28 and additionally at the last visit (Day 56).
Secondary endpoints included the evaluation of pharmacokinetic characteristics of PRI-002 by determination of maximum plasma concentration (Cmax), time to reach maximum plasma concentration (Tmax), half-life (t1/2) calculated from PRI-002 plasma concentrations; and the determination of CSF concentrations of PRI-002.
4 Pharmacokinetic sampling X X
1 Heart rate and blood pressure: Day 1: at pre-dose and 2 hours±15 minutes; Day 14 and 28: at pre-
dose; 2 ECG Day 1: at pre-dose and 2 hours ± 15 minutes; Day 14 and 28: at pre-dose; 3 Safety
MRI was scheduled at screening and within three days after Day 28 and Day 56;4 Pharmacokinetic
sampling Day 1 and Day 28: at pre-dose, 30 minutes ± 15 minutes, 1 hour ± 15 minutes, 2
hours ± 15 minutes, and 4 hours ± 15 minutes.

[2] = tested on: patients with MCI or mild dementia due to AD; experiment: Safety MRI (ARIA); format: in vivo, human; details: MRI at screening, after Day 28 and Day 56, 300 mg q.d. oral 28 d, n=9
Method: (§1) For safety assessment during baseline, at Day 14, 28, and 56, laboratory parameters and vital signs were measured, a physical exam was performed, and ECGs were recorded per protocol. A safety MRI was performed at screening, a second one within 3 days after day 28 and a third one at Day 56. During baseline and at day 28, EEG measurements were performed. In addition, nature, frequency, severity, and timing of AEs and SAEs were recorded at day 14, 28, and 56. Standardized AE reports were provided and analysed by the Data Safety and Monitoring Board (DSMB).

[3] = tested on: patients with MCI or mild dementia due to AD; experiment: Safety laboratory (hematology, clinical chemistry, hematoserology); format: in vivo, human; details: 300 mg q.d. oral 28 d
Method: All safety parameters and laboratory values (urinalysis, complete blood count (CBC), Quick, partial thromboplastin time (PTT), creatinine, […] (CK), […] (CRP), alanine aminotransaminase (ALT), aspartate aminotransferase (AST)) as well as ECG, EEG, MRI, and vital signs were analyzed in a descriptive manner according to their scales (frequencies, means). In order to compare a variable between both groups (placebo vs PRI-002) at one time point, a parameter free Wilcoxon rank sum test was used. As described in the statistical analysis plan, linear mixed models with random effect were used for the comparison of longitudinal effects between both groups (placebo vs PRI-002). ANOVA was also applied to assess longitudinal effects. Since the results are similar to the linear mixed models, results are presented using linear mixed models. A 95% confidence interval was used to check whether the parameters are within their normal ranges. The p value (p < 0.05) for the word list test was not corrected for multiplicity. All statistical data analysis was performed with the certified software Statistical Analysis System (SAS) by MicroDiscovery GmbH (Berlin, Germany).

[4] = tested on: patients with MCI or mild dementia due to AD; experiment: Vital signs, physical examination, ECG and EEG; format: in vivo, human; details: 300 mg q.d. oral 28 d
Method: as §1

[5] = EoT (Day 28), geometric mean ± SD
[6] = FU EoS (Day 56), geometric mean ± SD

CC(C)C[C@@H](NC(=O)[C@H](NC(=O)[C@H]1CCCN1)[C@H](C)O)C(=O)N[C@H](Cc1c[nH]cn1)C(=O)N[C@@H](C(=O)N[C@H](Cc1c[nH]cn1)C(=O)N[C@H](CC(N)=O)C(=O)N[C@H](CCCNC(=N)N)C(=O)N[C@H](CCCNC(=N)N)C(=O)N[C@H](CCCNC(=N)N)C(=O)N[C@H](CCCNC(=N)N)C(=O)N[C@H](CCCNC(=N)N)C(N)=O)[C@H](C)O [PRI-002] (H-[dP][dT][dL][dH][dT][dH][dN][dR][dR][dR][dR][dR]-NH2; N-terminus and C-terminus assumed)
level at 4 h ([1]; human, plasma, po, 300 mg, PRI-002 plasma level, Mean, Day 1, 4 h, n=9): 1.9 ng/mL
level at 0 h ([1]; human, plasma, po, 300 mg, PRI-002 plasma level, Mean, Day 28, 0 h, n=8): 2 ng/mL
level at 0.5 h ([1]; human, plasma, po, 300 mg, PRI-002 plasma level, Mean, Day 28, 0.5 h, n=8): 12.5 ng/mL
level at 1 h ([1]; human, plasma, po, 300 mg, PRI-002 plasma level, Mean, Day 28, 1 h, n=8): 8.4 ng/mL
level at 2 h ([1]; human, plasma, po, 300 mg, PRI-002 plasma level, Mean, Day 28, 2 h, n=8): 6.1 ng/mL
level at 4 h ([1]; human, plasma, po, 300 mg, PRI-002 plasma level, Mean, Day 28, 4 h, n=8): 4.6 ng/mL
Tmax ([1]; human, plasma, po, 300 mg, Tmax, plasma, Day 1 (n=9), Mean ± SD): 1.94 ± 1.61 h
Tmax ([1]; human, plasma, po, 300 mg, Tmax, plasma, Day 1 (n=9), Median): 1 h
Tmax ([1]; human, plasma, po, 300 mg, Tmax, plasma, Day 28 (n=8), Mean ± SD): 1.1 ± 1.3 h
AUC 0-4 (Day28/Day1), mean systemic drug increase ([1]; n=8, Mean ± SD): 2.5 ± 1.3 fold
AUC 0-4 hours ([1]; plasma, Day 1 (n=9), Max): 22.0 ng·h/mL
Cmax ([1]; plasma, Day 1 (n=9), Max): 10.4 ng/mL
Tmax ([1]; plasma, Day 1 (n=9), Max): 4.0 h
AUC 0-4 hours ([1]; plasma, Day 1 (n=9), Mean ± SD): 10 ± 7.5 ng·h/mL
Tmax ([1]; plasma, Day 1 (n=9), Mean ± SD): about 2 h
AUC 0-4 hours ([1]; plasma, Day 1 (n=9), Min): 2.0 ng·h/mL
Cmax ([1]; plasma, Day 1 (n=9), Min): 0.7 ng/mL
AUC 0-4 hours ([1]; plasma, Day 28 (n=8), Max): 70.9 ng·h/mL
Tmax ([1]; plasma, Day 28 (n=8), Max): 4.0 h
Tmax ([1]; plasma, Day 28 (n=8), Mean ± SD): ~1 h
AUC 0-4 hours ([1]; plasma, Day 28 (n=8), Min): 5.9 ng·h/mL
MRI: ARIA, edematous changes [2]: no edematous changes; also recorded: no ARIA
Hematocrit ([3]; Baseline (Day 1), geometric mean ± SD): 0.38±0.03 l/l
Erythrocyte ([3]; Day 14, geometric mean ± SD): 4.14 ± 0.42 pL⁻¹
Leucocyte ([3]; Day 14, geometric mean ± SD): 5.95 ± 1.71 nL⁻¹
PTT ([3]; Day 14, geometric mean ± SD): 31.60 ± 3.95 s
Quick value (prothrombin time) ([3]; Day 14, geometric mean ± SD): 96.99±21.30%
Erythrocyte [3, 5]: 4.06 ± 0.44 pL⁻¹
Leucocyte [3, 5]: 5.86 ± 1.81 nL⁻¹
PTT [3, 5]: 29.71 ± 1.94 s
Quick value (prothrombin time) [3, 5]: 101.13±9.55%
Erythrocyte [3, 6]: 4.10 ± 0.50 pL⁻¹
Hematocrit [3, 6]: 0.40±0.03 l/l
Leucocyte [3, 6]: 5.66 ± 1.41 nL⁻¹
PTT [3, 6]: 30.96 ± 3.11 s
Quick value (prothrombin time) [3, 6]: 98.71±21.08%
Hematocrit ([3]; Screening (Day 0), geometric mean ± SD): 0.39±0.03 l/l
changes in laboratory parameters (clinical chemistry, blood count, hematoserology) ([3]; screening to midterm visit to end of treatment): no clinically relevant changes
changes on vital signs, general physical examination, ECG and EEG [4]: no significant changes
